The text below walks through data of publication PMC8427973, “Regulation of the HTRA2 Protease Activity by an Inhibitory Antibody-Derived Peptide Ligand and the Influence on HTRA2-Specific Protein Interaction Networks in Retinal Tissues” (Biomedicines, 2021).

Assay [1] addresses T1, recombinant HTRA2 protein (Homo sapiens, UniProt O43464).
T1 construct: 6xHis (C); purchased Novoprotein Scientific INC., Summit, NJ, USA
T1 sequence (O43464 134-458): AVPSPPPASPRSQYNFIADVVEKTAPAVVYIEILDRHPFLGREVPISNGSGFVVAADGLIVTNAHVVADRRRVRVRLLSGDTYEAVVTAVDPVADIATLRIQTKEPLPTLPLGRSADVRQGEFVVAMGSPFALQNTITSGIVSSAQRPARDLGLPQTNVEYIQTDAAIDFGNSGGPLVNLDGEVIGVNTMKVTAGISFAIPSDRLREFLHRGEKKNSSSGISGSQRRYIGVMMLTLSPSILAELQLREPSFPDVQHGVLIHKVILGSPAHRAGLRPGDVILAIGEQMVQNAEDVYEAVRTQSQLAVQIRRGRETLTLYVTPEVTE
Description: HTRA2 protease activity assay with fluorescent H2-optimal substrate. It is filed as biochemical. The settings on record: for Average degradation rate of the optimal substrate H2 by HTRA2 (enzymatic reaction rate per minute): pH 8.0, RT, untreated positive control 229 U/min. Here is the method: The HTRA2 protease activity assay was performed as described by Martins et al. (2003), but with some slight modifications. The experiment was performed with 100 nM recombinant HTRA2 protein (Novoprotein Scientific INC., Summit, NJ, USA) in a protease assay buffer (50 mM tris(hydroxymethyl)-aminomethane (TRIS), 0.5 mM ethylenediaminetetraacetic acid (EDTA), and 1 mM dithiothreitol (DTT), pH 8.0) containing 10 µM H2-optimal substrate (Innovagen AB, Lund, Sweden). The H2-optimal substrate is commonly used to measure the protease activity of HTRA2 and consists of a structural quencher and a fluorophore unit. The cleavage of the substrate leads to the disruption of the quencher/fluorophore complex and the degradation rate can be measured by fluorescence. The different sample groups were treated with 50 µM PDZ-Opt, 50 µM PDZ-Sub, 50 µM synthetic CDR1 peptide, or 30 µM UCF-101, respectively. The drug compound UCF-101 is an inhibitor of the catalytic domain of HTRA2 and was purchased from Sigma Aldrich (Darmstadt, Germany). The concentrations of the peptide ligands for the HTRA2 protease activity assay were chosen from the previous publication. The concentration of UCF-101 was determined to be optimal from the preliminary experiments. In addition, a positive control containing only 100 nM recombinant HTRA2 and a negative control (only protease assay buffer) were included in this experiment. All of the sample groups were incubated for 1 h at 37 °C to determine the maximum degradation rate of HTRA2. For the analysis of the enzymatic reaction rate of HTRA2, all samples were measured subsequently after the addition of the 10 µM H2-optimal substrate at RT. Fluorescence was monitored on a Spark® 10 M multimode microplate-reader (Tecan Trading AG, Männedorf, Switzerland) with an excitation at 320 nm and a fluorescence emission at 405 nm. The fluorescence background of the substrate was substracted from the fluorescence intensities of the different the sample groups to normalize the data.
To determine the proteolytic activity of HTRA2 we used the fluorescent H2 optimal substrate developed by Martins et al. (2003). The optimal substrate H2 encoded a short specific amino acid sequence, which is preferentially cleaved by HTRA2, and was also modified with a fluorescent dye and quencher. […] Under physiological conditions, the proteolytic activity of HTRA2 is suppressed by the C-terminal PDZ domain, which blocks the access of potential substrates to the catalytic domain by steric hindrance. The binding of short hydrophobic polypeptides to the allosteric PDZ domain can induce specific conformational changes of HTRA2 and are able to regulate its proteolytic activity. Therefore, Martins et al. (2003) specifically designed the peptide ligands PDZ-Opt (GQYYFV) and PDZ-Sub (GGIRRV), which are known to increase the proteolytic activity of HTRA2 in this assay.

Assay [2] deals with HTRA2-specific interaction partners FNLA, NCKAP1, POTEE, PSMC1, SEC13. Nature of the assay: Targeted MS analysis (accurate inclusion mass screening, AIMS) of HTRA2 Co-IP eluates. The settings on record: repeated Co-IP, n = 3 biological replicates, Figure S3, CDR p < 0.05, UCF-101 p > 0.05. On the set-up: species or system house swine (Sus scrofa). The source says: Thereby, the peptides of interest were listed in the software inclusion list and the LTQ Orbitrap XL MS system only required MS/MS scans of the parent ions if the listed peptide was detected with an accurate mass and charge state. […] The selected peptides needed to be fully tryptic with a maximum of one missed cleavage, as described earlier. For this experiment, we repeated the Co-IP of the HTRA2-specific protein interaction partners ± treatments (see method Section 2.4) and subjected the respective eluate fractions to further in-solution trypsin digestion, as described elsewhere. In this case, the LTQ Orbitrap XL MS system was coupled online to an EASY-nLC 1200 system (Thermo Fisher Scientific, Rockford, IL, USA) using a PepMap C18 column system (75 µm × 500 mm; Thermo Fisher Scientific, Rockford, IL, USA). The dynamic exclusion mode was applied as follows: repeat count = 3, repeat duration = 30 s, exclusion size list = 100, exclusion time = 180 s, and the exclusion mass width ± 10 ppm. Protein identification and quantification were performed as described in Section 2.7.
For further validation of the HTRA2-specific interaction partners, we performed a targeted MS analysis via accurate inclusion mass screening (AIMS) technology. […] This time, the LC-MS system “only” recorded the unique peptide sequences of the previously identified HTRA2 interaction partners. […]

`O=C1C(=Cc2ccc(-c3ccccc3[N+](=O)[O-])o2)C(=O)N(c2ccccc2)C(=S)N1c1ccccc1` [UCF-101, reference compound]: in assay [1] (30 µM UCF-101, 100 nM recombinant HTRA2, 10 µM H2-optimal substrate), the “Average degradation rate of the optimal substrate H2 by HTRA2 (enzymatic reaction rate per minute)” value was determined as 0 U/min. Further, the “Abundances of the co-enriched target proteins FNLA, NCKAP1, POTEE, PSMC1 and SEC13 compared with the HTRA2 group” value in assay [2] is listed as “slight decrease”.
For the compound “ASGYTFTNYGLSWVR [CDR, synthetic peptide encoding a complementary-determining region 1 (CDR1) of polyclonal antibody molecules]”, in assay [1] (50 µM peptide, 100 nM HTRA2, 10 µM substrate, RT), the “Decrease of the average degradation rate of the optimal substrate H2 compared with the untreated positive control” value was “around 45%”. Besides, in assay [1] (50 µM peptide, 100 nM recombinant HTRA2, 10 µM H2-optimal substrate, fluorescence ex 320 nm / em 405 nm), the “Average degradation rate of the optimal substrate H2 by HTRA2 (enzymatic reaction rate per minute)” value worked out at 127 U/min. For the same compound, the “Maximum degradation rate of the H2 optimal substrate by HTRA2” value in assay [1] (50 µM peptide, 1 h at 37 °C, n = 3, Figure 1C) is reported as “significantly decreased”. In addition, in assay [1] (specific protease function assay, p < 0.01 (abstract)), the “Inhibition of the proteolytic activity of HTRA2” value is reported as “up to 50%”. The “Abundances of the co-enriched target proteins FNLA, NCKAP1, POTEE, PSMC1 and SEC13 compared with the HTRA2 group” value in assay [2] is “significantly diminished”.
